Test results from patent US10245261B2, “Substituted indol-5-ol derivatives and their therapeutic applications” (NantBioScience, Inc., priority 2013, dated 2019).

Key:
Test in all cases: KinaseProfiler kinase assay
Assay type in all cases: biochemical
[1] = target: AMPKα1(h) (Homo sapiens, UniProt Q13131)
In short: (§1)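 Buffer 20 mM MOPS, 1 mM EDTA, 0.01% Brij-35, 5% glycerol, 0.1% β-mercaptoethanol, 1 mg/mL BSA for compound dilution; reaction at pH 7.0 with [γ-33P]ATP, 40 min RT; filtermat/scintillation read-out; 0%/100% set by no-kinase and phosphopeptide wells.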

[2] = target: BTK(R28H)(h) (Homo sapiens, UniProt Q06187, R28H)
In short: as §1

[3] = target: BrSK2(h) (Homo sapiens, UniProt Q8IWQ3)
In short: as §1

[4] = target: CDK1/cyclinB(h) (Homo sapiens, UniProt P06493)
In short: as §1

[5] = target: CaMKI(h) (Homo sapiens, UniProt Q14012)
In short: as §1

[6] = target: EGFR(L858R)(h) (Homo sapiens, UniProt P00533, L858R)
In short: as §1

[7] = target: EphA5(h) (Homo sapiens, UniProt P54756)
In short: as §1

[8] = target: EphA8(h) (Homo sapiens, UniProt P29322)
In short: as §1

[9] = target: EphB2(h) (Homo sapiens, UniProt P29323)
In short: as §1

[10] = target: Flt3(D835Y)(h) (Homo sapiens, UniProt P36888, D835Y)
In short: as §1

[11] = target: Hck(h) activated (Homo sapiens, UniProt P08631)
In short: as §1

[12] = target: LIMK1(h) (Homo sapiens, UniProt P53667)
In short: as §1

[13] = target: MKK7β(h) (Homo sapiens, UniProt O14733)
In short: as §1

[14] = target: MSK1(h) (Homo sapiens, UniProt O75582)
In short: as §1

[15] = target: NEK3(h) (Homo sapiens, UniProt P51956)
In short: as §1

[16] = target: PDGFRα(D842V)(h) (Homo sapiens, UniProt P16234, D842V)
In short: as §1

[17] = target: PEK(h) (Homo sapiens, UniProt Q9NZJ5)
In short: as §1

[18] = target: PI3 Kinase (p110β/p85β)(m) (Mus musculus, UniProt Q8BTI9)
In short: as §1

[19] = target: PI3 Kinase (p110δ/p85α)(m) (Mus musculus, UniProt O35904)
In short: as §1

[20] = target: PI3KC2γ(h) (Homo sapiens, UniProt O75747)
In short: as §1

[21] = target: PKBγ(h) (Homo sapiens, UniProt Q9Y243)
In short: as §1

[22] = target: PKCζ(h) (Homo sapiens, UniProt Q05513)
In short: as §1

[23] = target: PKD2(h) (Homo sapiens, UniProt Q9BZL6)
In short: as §1

[24] = target: PRAK(h) (Homo sapiens, UniProt Q8IW41)
In short: as §1

[25] = target: PRK2(h) (Homo sapiens, UniProt Q16513)
In short: as §1

[26] = target: SAPK2a(h) (Homo sapiens, UniProt Q16539)
In short: as §1

[27] = target: Syk(h) (Homo sapiens, UniProt P43405)
In short: as §1

[28] = target: TBK1(h) (Homo sapiens, UniProt Q9UHD2)
In short: as §1

[29] = target: Tie2 (h) (Homo sapiens, UniProt Q02763)
In short: as §1

[30] = target: Tie2(Y897S)(h) (Homo sapiens, UniProt Q02763, Y897S)
In short: as §1

[31] = target: cKit(D816V)(h) (Homo sapiens, UniProt P10721, D816V)
In short: as §1

Chain of BrSK2(h) (Q8IWQ3 whole entry): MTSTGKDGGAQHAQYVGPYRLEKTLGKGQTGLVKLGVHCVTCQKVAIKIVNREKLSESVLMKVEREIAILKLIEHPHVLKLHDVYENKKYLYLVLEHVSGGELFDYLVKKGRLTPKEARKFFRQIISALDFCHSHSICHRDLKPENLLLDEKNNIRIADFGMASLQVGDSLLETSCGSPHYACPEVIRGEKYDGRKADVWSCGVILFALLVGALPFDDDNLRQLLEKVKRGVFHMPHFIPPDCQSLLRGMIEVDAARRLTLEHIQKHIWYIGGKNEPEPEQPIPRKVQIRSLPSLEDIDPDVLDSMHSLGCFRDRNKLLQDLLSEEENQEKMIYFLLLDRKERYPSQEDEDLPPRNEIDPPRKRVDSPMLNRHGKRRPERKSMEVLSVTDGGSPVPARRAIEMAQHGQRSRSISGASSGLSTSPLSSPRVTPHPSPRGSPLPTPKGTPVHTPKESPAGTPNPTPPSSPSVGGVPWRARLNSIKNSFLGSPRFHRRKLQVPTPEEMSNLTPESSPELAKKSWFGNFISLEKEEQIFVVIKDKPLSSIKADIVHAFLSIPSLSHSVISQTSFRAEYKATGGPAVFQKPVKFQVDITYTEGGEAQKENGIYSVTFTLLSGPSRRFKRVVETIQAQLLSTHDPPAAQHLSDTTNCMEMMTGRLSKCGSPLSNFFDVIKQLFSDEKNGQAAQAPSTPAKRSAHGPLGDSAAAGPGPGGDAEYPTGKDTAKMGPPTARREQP
Chain of Tie2 (h) (Q02763 23-1124): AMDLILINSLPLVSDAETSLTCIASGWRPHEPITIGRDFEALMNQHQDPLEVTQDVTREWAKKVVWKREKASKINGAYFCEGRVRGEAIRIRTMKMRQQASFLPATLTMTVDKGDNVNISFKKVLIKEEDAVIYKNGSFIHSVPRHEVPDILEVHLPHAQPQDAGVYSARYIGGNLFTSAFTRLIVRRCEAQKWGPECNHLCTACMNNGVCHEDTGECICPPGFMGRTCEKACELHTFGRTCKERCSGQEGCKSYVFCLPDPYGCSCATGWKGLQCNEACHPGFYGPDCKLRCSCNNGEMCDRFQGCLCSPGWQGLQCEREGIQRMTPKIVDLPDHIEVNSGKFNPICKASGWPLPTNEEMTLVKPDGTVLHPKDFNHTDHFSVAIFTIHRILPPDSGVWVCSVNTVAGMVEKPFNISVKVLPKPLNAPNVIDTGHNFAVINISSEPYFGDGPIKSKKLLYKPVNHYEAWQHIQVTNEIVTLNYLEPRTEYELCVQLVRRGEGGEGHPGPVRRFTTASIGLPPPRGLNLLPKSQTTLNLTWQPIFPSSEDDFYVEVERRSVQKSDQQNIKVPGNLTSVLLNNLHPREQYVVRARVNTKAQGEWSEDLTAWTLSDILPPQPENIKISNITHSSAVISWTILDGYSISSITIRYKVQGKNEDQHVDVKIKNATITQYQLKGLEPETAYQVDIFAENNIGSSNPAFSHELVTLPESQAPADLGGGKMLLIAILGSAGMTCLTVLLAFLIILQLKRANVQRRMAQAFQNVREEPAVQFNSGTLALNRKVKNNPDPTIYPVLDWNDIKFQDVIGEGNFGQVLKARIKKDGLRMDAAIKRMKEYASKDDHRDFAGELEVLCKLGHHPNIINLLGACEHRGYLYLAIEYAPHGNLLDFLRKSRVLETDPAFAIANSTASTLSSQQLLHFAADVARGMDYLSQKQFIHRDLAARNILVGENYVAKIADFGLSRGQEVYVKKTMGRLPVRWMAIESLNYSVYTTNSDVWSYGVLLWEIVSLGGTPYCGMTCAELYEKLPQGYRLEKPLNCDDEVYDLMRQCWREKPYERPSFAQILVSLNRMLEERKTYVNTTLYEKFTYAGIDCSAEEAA
Chain of BTK(R28H)(h) (Q06187 whole entry R28H): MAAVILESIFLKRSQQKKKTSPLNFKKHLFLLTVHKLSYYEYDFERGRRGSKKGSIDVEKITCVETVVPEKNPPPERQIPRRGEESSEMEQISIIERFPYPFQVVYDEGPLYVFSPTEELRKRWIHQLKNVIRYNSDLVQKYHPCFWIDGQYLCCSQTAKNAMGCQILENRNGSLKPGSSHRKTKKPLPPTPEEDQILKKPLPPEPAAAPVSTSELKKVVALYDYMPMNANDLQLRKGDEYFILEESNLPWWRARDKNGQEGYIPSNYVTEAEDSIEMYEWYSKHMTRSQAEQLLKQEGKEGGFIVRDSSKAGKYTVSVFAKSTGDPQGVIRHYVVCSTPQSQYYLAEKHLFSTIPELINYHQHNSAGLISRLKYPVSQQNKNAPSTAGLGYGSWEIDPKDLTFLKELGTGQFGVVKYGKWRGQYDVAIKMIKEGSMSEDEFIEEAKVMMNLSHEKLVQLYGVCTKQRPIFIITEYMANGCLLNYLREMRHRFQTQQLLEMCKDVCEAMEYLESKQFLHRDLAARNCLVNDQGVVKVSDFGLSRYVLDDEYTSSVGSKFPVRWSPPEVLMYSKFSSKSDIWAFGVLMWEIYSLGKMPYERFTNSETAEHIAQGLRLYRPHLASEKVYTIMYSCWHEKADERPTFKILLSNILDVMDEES
Chain of MKK7β(h) (O14733 whole entry): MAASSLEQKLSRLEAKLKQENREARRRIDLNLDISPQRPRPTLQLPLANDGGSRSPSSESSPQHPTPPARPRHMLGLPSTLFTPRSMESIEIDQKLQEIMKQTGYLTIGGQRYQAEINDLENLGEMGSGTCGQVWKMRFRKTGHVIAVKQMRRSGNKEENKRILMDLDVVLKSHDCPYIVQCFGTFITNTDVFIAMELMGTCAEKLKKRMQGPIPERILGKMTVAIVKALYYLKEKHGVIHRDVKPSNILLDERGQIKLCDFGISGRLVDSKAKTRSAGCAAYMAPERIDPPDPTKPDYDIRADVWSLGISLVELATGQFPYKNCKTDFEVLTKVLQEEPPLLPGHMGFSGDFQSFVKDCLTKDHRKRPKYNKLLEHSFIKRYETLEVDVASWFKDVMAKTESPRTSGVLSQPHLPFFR
Chain of PI3 Kinase (p110β/p85β)(m) (Q8BTI9 whole entry): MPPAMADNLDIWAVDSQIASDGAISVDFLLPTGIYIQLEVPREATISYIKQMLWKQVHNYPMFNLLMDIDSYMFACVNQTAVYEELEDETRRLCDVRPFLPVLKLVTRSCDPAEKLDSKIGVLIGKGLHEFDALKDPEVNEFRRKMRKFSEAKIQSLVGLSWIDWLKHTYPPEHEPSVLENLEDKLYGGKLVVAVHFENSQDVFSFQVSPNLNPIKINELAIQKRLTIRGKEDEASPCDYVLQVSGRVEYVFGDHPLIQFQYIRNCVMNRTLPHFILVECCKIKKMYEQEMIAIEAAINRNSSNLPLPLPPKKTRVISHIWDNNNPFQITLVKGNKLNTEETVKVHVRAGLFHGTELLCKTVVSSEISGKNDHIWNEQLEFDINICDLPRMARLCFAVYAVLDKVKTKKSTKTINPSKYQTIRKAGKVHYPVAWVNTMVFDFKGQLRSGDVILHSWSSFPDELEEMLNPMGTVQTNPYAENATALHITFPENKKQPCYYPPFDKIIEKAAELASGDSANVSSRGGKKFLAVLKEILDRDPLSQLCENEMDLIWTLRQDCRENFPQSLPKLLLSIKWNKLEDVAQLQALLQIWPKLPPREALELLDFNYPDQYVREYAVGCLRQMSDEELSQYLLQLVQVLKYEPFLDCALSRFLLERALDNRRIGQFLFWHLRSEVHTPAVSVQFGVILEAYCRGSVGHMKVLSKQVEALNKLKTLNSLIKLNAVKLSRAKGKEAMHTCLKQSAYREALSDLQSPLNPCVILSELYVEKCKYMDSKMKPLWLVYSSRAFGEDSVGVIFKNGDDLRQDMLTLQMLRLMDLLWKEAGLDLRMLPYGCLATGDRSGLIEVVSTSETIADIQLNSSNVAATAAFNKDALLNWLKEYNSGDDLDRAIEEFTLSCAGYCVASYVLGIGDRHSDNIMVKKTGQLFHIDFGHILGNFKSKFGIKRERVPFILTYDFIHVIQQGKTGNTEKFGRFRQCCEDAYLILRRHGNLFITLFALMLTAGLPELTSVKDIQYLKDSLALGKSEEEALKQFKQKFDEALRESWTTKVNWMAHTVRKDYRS
Chain of PI3 Kinase (p110β/p85β)(m) (O08908 whole entry partner): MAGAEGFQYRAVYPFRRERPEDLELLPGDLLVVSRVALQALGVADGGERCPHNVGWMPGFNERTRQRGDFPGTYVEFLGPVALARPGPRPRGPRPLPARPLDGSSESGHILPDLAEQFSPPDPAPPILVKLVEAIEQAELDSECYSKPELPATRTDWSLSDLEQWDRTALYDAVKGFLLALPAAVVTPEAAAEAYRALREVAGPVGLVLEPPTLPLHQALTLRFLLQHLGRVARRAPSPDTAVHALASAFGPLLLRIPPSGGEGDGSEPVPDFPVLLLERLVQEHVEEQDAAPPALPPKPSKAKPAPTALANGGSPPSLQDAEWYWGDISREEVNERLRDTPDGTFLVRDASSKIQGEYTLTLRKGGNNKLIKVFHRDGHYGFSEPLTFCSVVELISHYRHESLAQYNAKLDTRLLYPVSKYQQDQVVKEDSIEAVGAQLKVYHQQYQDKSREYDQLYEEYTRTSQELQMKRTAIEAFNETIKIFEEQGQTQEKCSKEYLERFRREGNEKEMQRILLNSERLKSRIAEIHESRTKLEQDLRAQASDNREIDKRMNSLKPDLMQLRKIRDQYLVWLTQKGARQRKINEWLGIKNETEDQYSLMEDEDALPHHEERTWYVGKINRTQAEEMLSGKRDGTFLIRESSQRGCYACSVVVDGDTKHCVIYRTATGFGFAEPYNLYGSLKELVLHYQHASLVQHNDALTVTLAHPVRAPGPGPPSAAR
Chain of Hck(h) activated (P08631 251-518): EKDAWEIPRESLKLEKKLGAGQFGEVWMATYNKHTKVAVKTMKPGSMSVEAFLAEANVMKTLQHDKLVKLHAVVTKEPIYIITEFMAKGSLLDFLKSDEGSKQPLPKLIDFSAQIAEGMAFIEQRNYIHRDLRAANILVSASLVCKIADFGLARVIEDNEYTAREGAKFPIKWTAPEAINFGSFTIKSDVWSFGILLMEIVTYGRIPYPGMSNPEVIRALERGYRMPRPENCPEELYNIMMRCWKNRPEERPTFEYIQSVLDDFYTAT
Chain of Tie2(Y897S)(h) (Q02763 23-1124 Y897S): as the sequence (Q02763 23-1124) above, with Y875S counted along it

| Compound | inhibition at 0.1 µM [1] [%] | inhibition at 0.1 µM [2] [%] | inhibition at 0.1 µM [3] [%] | inhibition at 0.1 µM [4] [%] | inhibition at 0.1 µM [5] [%] | inhibition at 0.1 µM [6] [%] | inhibition at 0.1 µM [7] [%] | inhibition at 0.1 µM [8] [%] | inhibition at 0.1 µM [9] [%] | inhibition at 0.1 µM [10] [%] | inhibition at 0.1 µM [11] [%] | inhibition at 0.1 µM [12] [%] | inhibition at 0.1 µM [13] [%] | inhibition at 0.1 µM [14] [%] | inhibition at 0.1 µM [15] [%] | inhibition at 0.1 µM [16] [%] | inhibition at 0.1 µM [17] [%] | inhibition at 0.1 µM [18] [%] | inhibition at 0.1 µM [19] [%] | inhibition at 0.1 µM [20] [%] | further results |
| --- | --- | --- | --- | --- | --- | --- | --- | --- | --- | --- | --- | --- | --- | --- | --- | --- | --- | --- | --- | --- | --- |
| Cc1cc2c(F)c(Oc3nc(Nc4cc(C5CC5)[nH]n4)cc(N4CCN(C)CC4)n3)ccc2[nH]1 [Compound 10] | 71 | 10 | 60 | 10 | 2 | -5 | 76 | 33 | 47 | 99 | 90 | 83 | -26 | 96 | 18 | 73 | -4 | -1 | -19 | 27 | inhibition at 0.1 µM [21]: -10%; inhibition at 0.1 µM [22]: -7%; inhibition at 0.1 µM [23]: -5%; inhibition at 0.1 µM [24]: -24%; inhibition at 0.1 µM [25]: 51%; inhibition at 0.1 µM [26]: 10%; inhibition at 0.1 µM [27]: 25%; inhibition at 0.1 µM [28]: 71%; inhibition at 0.1 µM [29]: 100%; inhibition at 0.1 µM [30]: 91%; inhibition at 0.1 µM [31]: 33% |
| Cc1cc2c(F)c(Oc3nc(Nc4cc(C5CC5)[nH]n4)cc(N4CCNCC4)n3)ccc2[nH]1 [Compound 11, N-(5-cyclopropyl-1H-pyrazol-3-yl)-2-((4-fluoro-2-methyl-1H-indol-5-yl)oxy)-6-(piperazin-1-yl)pyrimidin-4-amine] | 72 | -7 | 48 | -1 | 7 | 23 | 81 | 39 | 76 | 101 | 84 | 90 | -16 | 9 | 16 | 70 | -8 | -1 | 6 | -2 | inhibition at 0.1 µM [21]: -18%; inhibition at 0.1 µM [22]: -14%; inhibition at 0.1 µM [23]: -1%; inhibition at 0.1 µM [24]: 6%; inhibition at 0.1 µM [25]: 51%; inhibition at 0.1 µM [26]: -7%; inhibition at 0.1 µM [27]: 36%; inhibition at 0.1 µM [28]: 95%; inhibition at 0.1 µM [29]: 98%; inhibition at 0.1 µM [30]: 93%; inhibition at 0.1 µM [31]: 38% |
